Data from patent US12410148B2, “Antibody drug conjugates” (Pharma Mar, S.A., priority 2013, dated 2025).
In brackets after ≈: the same amount, converted by molar mass. Several values for one entry are separate records, joined by “and”; a condition that tells them apart may be missing. Equal values may be shown once. Read-outs that look alike come from different tables or passages of the source.

Key:
[1] = system: HCC-1954, SK-BR-3, MDA-MB-231 and MCF-7 cells; assay: In vitro cytotoxicity, whole breast cancer cell panel; conditions: for IC50: Homo sapiens
Description: (§1) All tumor cell lines used in this study were obtained from the American Type Culture Collection (ATCC), unless otherwise indicated; BT-474 (ATCC HTB-20, Breast Ductal Carcinoma), SK-BR-3 (ATCC HTB-30, Breast Adenocarcinoma) and HCC-1954 (ATCC CRL-2338, Breast Ductal Carcinoma), all HER2+; MDA-MB-231 (ATCC HTB-26, Breast Adenocarcinoma) and MCF-7 (ATCC HTB-22 Breast Adenocarcinoma, pleural effusion), all HER2-; SK-OV-3 (ATCC HTB-77, Ovary Adenocarcinoma), HER2+; NB-4 (Acute Promyelocytic Leukemia, APL, CD13+, M. Lanotte et al. (1991) NB4, a maturation inducible cell line with t(15;17) marker isolated from a human acute promyelocytic leukemia (M3). Blood 77, 1080-1086), (CD13+) and U937 (ATCC CRL-1 593.2, Histiocytic Lymphoma, CD13+ and CD4+); Raji (ATCC CCL-86, Burkitt's Lymphoma) (CD13−, CD20+, CD5−, and CD4−); RPMI-8226 (ATCC CRM-CCL-155, Multiple Myeloma) (CD13−, CD20−, CD5− and CD4−); Karpas-299 (DSMZ ACC-31, Non-Hodgkin's Lymphoma) (CD20−, CD5+, and CD4+); MOLT-4 (ATCC CRL-1 582, Acute Lymphoblastic Leukemia, CD5+). In addition, the two Raji cell (ATCC CCL-86, Burkitt's Lymphoma) clones used in this study Raji-clone #10 (high CD5 expression) and Raji-clone18 (null CD5 expression), were provided by Dr. Juan M. Zapata (Instituto de Investigaciones Biomedicas “Alberto Sols”, CSIC-UAM, Madrid, Spain). Cells were maintained at 37° C., 5% CO 2 and 95% humidity in Dulbecco's Modified Eagle's Medium (DMEM) (for MCF and MDA-MB-231 cells), RPMI-1640 (for SK-BR-3, HCC-1954, NB-4, U937, Raji, RPMI-8226, Karpas-299, MOLT-4, Raji-clone #10 and Raji-clone #18 cells), RPMI-1640+1% ITS (for BT-474 cells) or McCOyS (for SK-OV-3 cells), all media supplemented with 10% Fetal Calf Serum (FCS) and 100 units/mL penicillin and streptomycin.
For adherent cells: A colorimetric assay using sulforhodamine B (SRB) was adapted for quantitative measurement of cell growth and cytotoxicity, as described in V. Vichai and K. Kirtikara (2006) Sulforhodamine B colorimetric assay for cytotoxicity screening. Nature Protocols, 1, 1112-1 116. Briefly, cells were seeded in 96-well microtiter plates and allowed to stand for 24 hours in drug-free medium before treatment with vehicle alone or the indicated compounds for 72 hours. For quantification, cells were washed twice with phosphate buffered saline (PBS), fixed for 15 min in 1% glutaraldehyde solution, rinsed twice with PBS, stained in 0.4% SRB-1% acetic acid solution for 30 min, rinsed several times with 1% acetic acid solution and air-dried. SRB was then extracted in 10 mM trizma base solution and the optical density measured at 490 nm in a microplate spectrophotometer. Cell survival was expressed as percentage of control, untreated cell survival.
(§2) The IC50 value refers to the concentration of compound inducing a 50% of cell death as compared to the control cell survival.
Standard dose-response (DR) curves for 72 hours were performed.

SK-BR-3 cells = assay: In vitro cytotoxicity, SRB assay, 72 h dose-response; type: cell-based; conditions: Homo sapiens, SK-BR-3, 72 h, HER2+; 72 h; read-out: IC50
Description: All tumor cell lines used in this study were obtained from the American Type Culture Collection (ATCC), unless otherwise indicated; BT-474 (ATCC HTB-20, Breast Ductal Carcinoma), SK-BR-3 (ATCC HTB-30, Breast Adenocarcinoma) and HCC-1954 (ATCC CRL-2338, Breast Ductal Carcinoma), all HER2+; MDA-MB-231 (ATCC HTB-26, Breast Adenocarcinoma) and MCF-7 (ATCC HTB-22 Breast Adenocarcinoma, pleural effusion), all HER2-; SK-OV-3 (ATCC HTB-77, Ovary Adenocarcinoma), HER2+; NB-4 (Acute Promyelocytic Leukemia, APL, CD13+, M. Lanotte et al. (1991) NB4, a maturation inducible cell line with t(15;17) marker isolated from a human acute promyelocytic leukemia (M3). […] Cells were maintained at 37° C., 5% CO 2 and 95% humidity in Dulbecco's Modified Eagle's Medium (DMEM) (for MCF and MDA-MB-231 cells), RPMI-1640 (for SK-BR-3, HCC-1954, NB-4, U937, Raji, RPMI-8226, Karpas-299, MOLT-4, Raji-clone #10 and Raji-clone #18 cells), RPMI-1640+1% ITS (for BT-474 cells) or McCOyS (for SK-OV-3 cells), all media supplemented with 10% Fetal Calf Serum (FCS) and 100 units/mL penicillin and streptomycin.
For adherent cells: A colorimetric assay using sulforhodamine B (SRB) was adapted for quantitative measurement of cell growth and cytotoxicity, as described in V. Vichai and K. Kirtikara (2006) Sulforhodamine B colorimetric assay for cytotoxicity screening. […] Briefly, cells were seeded in 96-well microtiter plates and allowed to stand for 24 hours in drug-free medium before treatment with vehicle alone or the indicated compounds for 72 hours. For quantification, cells were washed twice with phosphate buffered saline (PBS), fixed for 15 min in 1% glutaraldehyde solution, rinsed twice with PBS, stained in 0.4% SRB-1% acetic acid solution for 30 min, rinsed several times with 1% acetic acid solution and air-dried. SRB was then extracted in 10 mM trizma base solution and the optical density measured at 490 nm in a microplate spectrophotometer. Cell survival was expressed as percentage of control, untreated cell survival.

[2] = system: Raji-clone #10 (high CD5 expression); assay: In vitro cytotoxicity, MTT assay, 72 h dose-response; type: cell-based; conditions: Homo sapiens
Description: (§5) Briefly, MTT solution was added to the cell cultures at a final concentration of 0.5 mg/mL, and incubated for 1 to 4 hours at 37° C. until formazan crystals are formed. Culture medium is carefully removed from the cell cultures and formazan crystals resuspended in 100 μl DMSO. […] Cell survival was expressed as percentage of control, untreated cell survival.

[3] = system: NB4, U937, Raji and RPMI-8226 cells; assay: In vitro cytotoxicity, whole CD13 cell panel; conditions: for IC50: Homo sapiens
Description: as §1
(§3) For suspension cells: A standard metabolic assay using MTT (3-(4,5-Dimethylthiazol-2-yl)-2,5-diphenyltetrazolium bromide) was adapted for quantitative measurement of cell growth and cytotoxicity, as described in T. Mosmann (1983) Rapid colorimetric assay for cellular growth and survival: Application to proliferation and cytotoxicity assays. J. Immunol. Meth., 65, 55-63. Briefly, MTT solution was added to the cell cultures at a final concentration of 0.5 mg/mL, and incubated for 1 to 4 hours at 37° C. until formazan crystals are formed. Culture medium is carefully removed from the cell cultures and formazan crystals resuspended in 100 μl DMSO. After mixing to assure solubilization, the quantity of formazan (presumably directly proportional to the number of viable cells) is measured by recording changes in absorbance at 570 nm using a plate reading spectrophotometer. Cell survival was expressed as percentage of control, untreated cell survival.
as §2
The in vitro cytotoxic activity of ADC9 along with the parent cytotoxic Compounds 1 and 4, was evaluated against different human tumor cell lines expressing or not the CD13 receptor, including NB4 and U937 (CD13 positive cells) and Raji and RPMI-8226 (CD13 negative cells). Standard dose-response (DR) curves for 72 hours were performed.

[4] = system: Raji-clone #18 (null CD5 expression); assay: In vitro cytotoxicity, MTT assay, 72 h dose-response; type: cell-based; conditions: Homo sapiens, C#18 (null CD5)
Description: as §5

NB-4 cells = assay: as above; type: cell-based; conditions: Homo sapiens, CD13+
Description: as §5

MCF-7 cells = assay: In vitro cytotoxicity, SRB assay, 72 h dose-response; type: cell-based; conditions: Homo sapiens, MCF7, 72 h, HER2−; 72 h; read-out: IC50
Description: (§4) Nature Protocols, 1, 1112-1 116.

HCC-1954 cells = assay: as above; type: cell-based; conditions: Homo sapiens, HCC1954, 72 h, HER2+; 72 h; read-out: IC50
Description: as §4

MDA-MB-231 cells = assay: as above; type: cell-based; conditions: Homo sapiens, MDA-MB-231, 72 h, HER2−; 72 h; read-out: IC50
Description: as §4

[5] = system: Raji, RPMI-8226 and Karpas-299 cells; assay: In vitro cytotoxicity, whole CD20 cell panel; conditions: Homo sapiens
Description: as §1, §3, §2
The in vitro cytotoxic activity of ADC12 along with the parent cytotoxic Compounds 1, 4, and 40, was evaluated was assayed against different human cancer cell lines expressing or not the CD20 antigen, including Raji (CD20 positive cells); RPMI-8226 and Karpas-299 (CD20 negative cells). Standard dose-response (DR) curves for 72 hours were performed.

[6] = system: Karpas-299, U937, Raji and RPMI-8226 cells; assay: In vitro cytotoxicity, whole CD4 cell panel; conditions: for IC50: Homo sapiens
Description: as §1, §3, §2
The in vitro cytotoxic activity of ADC16 along with the parent cytotoxic Compounds 1, 4, and 40, was evaluated against different human cancer cell lines expressing or not the CD4 antigen, including Karpas-299 and U937 (both CD4+); Raji and RPMI-8226 (both CD4−). Standard dose-response (DR) curves for 72 hours were performed.

Raji cells = assay: In vitro cytotoxicity, MTT assay, 72 h dose-response; type: cell-based, human; conditions: Homo sapiens, Raji, CD13−, CD20+, CD5−, CD4−, read-out: IC50
Description: as §5

RPMI-8226 cells = assay: as above; type: cell-based, human; conditions: Homo sapiens, RPMI-8226, 72 h, CD13−, CD20−, CD5−, CD4−, read-out: IC50
Description: as §5

U937 cells = assay: as above; type: cell-based, human; conditions: Homo sapiens, U-937, 72 h, CD13+, CD4+, read-out: IC50
Description: as §5

[7] = read-out: IC50 values along the different cell lines tested (range), four breast cell lines
[8] = read-out: mean IC50 value across the whole cell panel, four breast cell lines
[9] = read-out: IC50 values across the different cell lines tested (range)
[10] = read-out: mean IC50 value across the whole cell panel
[11] = long maleimide containing linker

SMILES	IC50 [1, 7]	IC50 [1, 8]	IC50 (SK-BR-3 cells)	IC50 [3, 9]	IC50 [3, 10]	IC50 (NB-4 cells)	IC50 (MCF-7 cells)	IC50 (HCC-1954 cells)	IC50 (MDA-MB-231 cells)	further results
COC1=CC[C@@H]([C@@H](C)/C=C(C)/C=C\C=C/C(=O)N[C@H](C(=O)N/C=C\C[C@H](C/C=C(\C)Cl)OC(=O)NCCCNC(=O)OCc2ccc(NC(=O)[C@H](CCCNC(N)=O)NC(=O)[C@@H](NC(=O)CCCCCN3C(=O)C=CC3=O)C(C)C)cc2)C(C)(C)C)OC1=O [Compound 12]	0.0076 µg/mL to 0.0305 µg/mL and 6.02 nM to 24.2 nM	0.0163 µg/mL and 12.9 nM	0.00905 µg/mL and 7.18 nM	0.0044 µg/mL to 0.048 µg/mL and 3.5 nM to 38 nM	0.02 µg/mL and 16 nM	0.00445 µg/mL and 3.53 nM	0.0305 µg/mL and 24.2 nM	0.0076 µg/mL and 6.02 nM	0.018 µg/mL and 14.3 nM	IC20 ([2]; C#10 (high CD5)): 0.15 µg/mL and 119 nM; IC50 ([2]; C#10 (high CD5)): 0.27 µg/mL and 214 nM; IC50 ([2]; clone #10, CD5 expressing): 215 nM; decrease of cytotoxic activity as compared to Compound 4 ([3]; long linker): ~1 log; IC20 [4]: 0.2 µg/mL and 159 nM; IC50 [4]: > 792 nM and > 1 µg/mL; IC50 [5, 9]: 0.022 µg/mL to 0.067 µg/mL and 18 nM to 55 nM; IC50 [5, 10]: 0.039 µg/mL and 31 nM; IC50 [6, 9]: 0.073 µg/mL to 0.41 µg/mL and 58 nM to 320 nM; IC50 [6, 10]: 0.17 µg/mL and 130 nM; reduction of cytotoxic activity as compared to Compound 4 [6, 11]: ~2 log; reduction of cytotoxic activity as compared to Compound 40 [6, 11]: ~3 log
COC1=CC[C@@H]([C@@H](C)/C=C(C)/C=C\C=C/C(=O)N[C@H](C(=O)N/C=C\C[C@H](C/C=C(\C)Cl)OC(=O)NCCCNC(=O)CCS)C(C)(C)C)OC1=O [Compound 13]	0.795 to 2.63 ng/mL (≈ 1.06 to 3.5 nM)	0.00183 µg/mL and 2.44 nM	0.000795 µg/mL and 1.06 nM	0.0017 µg/mL to 0.01 µg/mL and 2.7 nM to 14 nM	0.0043 µg/mL and 5.7 nM	0.0017 µg/mL and 2.26 nM	0.00243 µg/mL and 3.23 nM	0.00149 µg/mL and 1.98 nM	0.00263 µg/mL and 3.5 nM	decrease of cytotoxic activity as compared to Compound 4 ([1]; thiol containing tail): about 5 fold; reduction of cytotoxic activity as compared to Compound 40 ([3]; thiol containing tail): less than 1 log; IC50 (Raji cells): 0.0103 µg/mL and 13.7 nM; IC50 (RPMI-8226 cells): 0.0023 µg/mL and 3.06 nM; IC50 (U937 cells): 0.00285 µg/mL and 3.8 nM
